Results reported in patent publication US20050008607A1, “Composition containing a carbonyl amine” (priority 2003, published 2005).
Entries after “also recorded” stand apart in the source; their conditions may differ.

Tests used:
[1] = test system: human striated muscle cells innervated with explants of spinal cord and of spinal ganglia from rat embryos; type: cell-based
[2] = test system: wrinkles; details: in vivo; cited from earlier work

Compound: botulinum toxin
- blocking effect on contractions [1]: blocking effect which is much weaker; also recorded: complete
- blocking of the contractions [1]: completely blocks the contractions
- frequency of the contractions [1]: greatly decreases the frequency of the contractions

Compound: CN1C(=O)CN=C(c2ccccc2)c2cc(Cl)ccc21 [diazepam, reference compound]
- muscle fibre contractions [1]: inhibited muscle fibre contractions
- anti-wrinkle activity [2]: demonstrated in vivo

Compound: CCCCCC(=O)CCN(CC)CCCc1ccccc1 [Compound (4)]
- contractions of three muscle fibres ([1]; 100 μM, incubated for 60 seconds, contractions counted over 30 seconds): blocks the contractions
